In PMC10473160 (Cancer Research Communications, 2023):

Assays:
NCI-H1703 cells [1] = experiment: Cell Titer Glo cellular cytotoxicity assay, NCI-H1703; type: cell-based; details: Homo sapiens, NCI-H1703, 144 h; H1703, 6 days, representative experiment, unit not readable in the picture; read-out: IC50 (Fig. 3B)
Experimental: (§1) Cells were seeded in 384-well plates at a density of 300–500 cells per well (depending upon the doubling time for each cell line) with 40 μL of media per well using a multidrop combi cell dispenser (Thermo Fisher Scientific). The cells were incubated at room temperature for 30 minutes to minimize edge effects. The next day, the cells were treated with drugs of interest at various concentrations using a D300e digital dispenser (Tecan). Following treatment, the cells were cultured at 37°C for 6 days. On day 6 after treatment initiation, the plates and Cell Titer Glo (CTG; Promega; PRG9243) were incubated at room temperature (protected from light) for 1 hour to reach equilibrium. After incubation, half of the CTG volume was added to one volume of cell culture medium in each well. The plates were then shaken for 30 seconds to induce cell lysis. The cells were then incubated at room temperature for 12 minutes protected from light to stabilize the luminescence signal. The luminescent cell viability was measured using an EnVision plate reader (PerkinElmer). For cell viability, the data were analyzed using Excel (Microsoft) and GraphPad Prism (RRID:SCR_002798; Dotmatics). […] For synergy, the data were analyzed using Excel, SynergyFinder ([28]), and Combenefit ([29]). […]

A549 cells = experiment: CTG combination synergy (Bliss) with ZL-2201, A549; type: cell-based, human; details: 6 days of combination treatment
Experimental: Cells were seeded in 384-well plates at a density of 300–500 cells per well (depending upon the doubling time for each cell line) with 40 μL of media per well using a multidrop combi cell dispenser (Thermo Fisher Scientific). The cells were incubated at room temperature for 30 minutes to minimize edge effects. The next day, the cells were treated with drugs of interest at various concentrations using a D300e digital dispenser (Tecan). Following treatment, the cells were cultured at 37°C for 6 days. On day 6 after treatment initiation, the plates and Cell Titer Glo (CTG; Promega; PRG9243) were incubated at room temperature (protected from light) for 1 hour to reach equilibrium. After incubation, half of the CTG volume was added to one volume of cell culture medium in each well. The plates were then shaken for 30 seconds to induce cell lysis. […] The luminescent cell viability was measured using an EnVision plate reader (PerkinElmer). For cell viability, the data were analyzed using Excel (Microsoft) and GraphPad Prism (RRID:SCR_002798; Dotmatics). The data were first transformed to a log scale on the X-axis, then transformed values were normalized, and finally, normalized values were fitted using a nonlinear regression curve fit. For synergy, the data were analyzed using Excel, SynergyFinder ([28]), and Combenefit ([29]). […]

NCI-H1703 cells [2] = experiment: High-content imaging assay (γH2AX, phospho-histone H3, cleaved caspase 3); type: cell-based, human; details: single-agent treatment, 72 hours
Experimental: Cells were seeded in 96-well plates at a density of 10,000 cells per well with 100 μL of media per well. The cells were cultured overnight. The next day, the cells were treated with doxorubicin (0.006 μmol/L), ZL-2201 (0.1, 0.3, 0.5, 1, and 3.6 μmol/L), and a combination of doxorubicin and ZL-2201 for the indicated times. The cells were washed in PBS and fixed by adding Cytofix/Perm buffer (BD; 554714) at room temperature for 20 minutes. Cells were washed with Perm wash buffer and blocked with Perm wash buffer and 3% FBS at room temperature for 1 hour. The cells were then incubated with primary antibodies against γH2AX-Ser139 (RRID:AB_309864; Millipore; 05-636), pPH3 (Ser10; 6G3; RRID:AB_331748; Cell Signaling Technology; 9706) and cleaved caspase 3 (Asp175; 5A1E; RRID:AB_2070042; Cell Signaling Technology; 9664) overnight at 4°C. Cells were washed the following day and incubated with secondary antibodies (Alexa Fluor 488; Invitrogen; A32723 or A32731 and Alexa Fluor 647; A32733) at room temperature for 45 minutes in the dark. The cells were washed and stained with Hoescht (Thermo Fisher Scientific; H3570) at room temperature for 15 minutes in the dark. Images were obtained and quantified using the ImageXpress Micro Confocal High-Content Imaging System (Molecular Devices). A total of 16 fields were obtained per image for each timepoint and treatment groups.

NCI-H1703 cells [3] = details: NCI-H1703, Bliss, 6 days of combination treatment
Experimental: as §1

In the case of `COc1cccc2c1C(=O)c1c(O)c3c(c(O)c1C2=O)C[C@@](O)(C(=O)CO)C[C@@H]3O[C@H]1C[C@H](N)[C@H](O)[C@H](C)O1` [doxorubicin], the IC50 (NCI-H1703 cells [1]) is reported as 4 nM, the “synergy score in combination with ZL-2201” value (A549 cells) is reported as greater than 30 and the “cleaved caspase 3 (apoptosis) level” value (NCI-H1703 cells [2]) is reported as “did not alter”. The “phospho-histone H3 (mitotic index) level” value (NCI-H1703 cells [2]) was “did not alter” and the “synergy score in combination with ZL-2201” value (NCI-H1703 cells [3]) was greater than 30.
